Measured values reported in ChEMBL document CHEMBL1201862, “PubChem BioAssay data set” (2004).
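Compound exposure: 48 hours, 5 concentrations, 96-well plates. GI50 marks 50% less growth.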 Activity calls are given as the source filed them. No stated cut-off is given here; in the data, active = GI50 up to about 1.1 µM and inactive = higher.

How the values were obtained:
Test in all cases: NCI tumour cell line growth inhibition, 48 h
[1] = tested on: KM12
[2] = tested on: OVCAR-3
[3] = tested on: SW-620
[4] = tested on: OVCAR-5
[5] = tested on: DMS-114
[6] = tested on: SN12C
[7] = tested on: EKVX
[8] = tested on: HT-29
[9] = tested on: A549
[10] = tested on: OVCAR-4
[11] = tested on: SNB-19
[12] = tested on: DLD-1
[13] = tested on: RPMI-8226
[14] = tested on: CAKI-1
[15] = tested on: MCF7
[16] = tested on: Malme-3M
[17] = tested on: COLO 205

Measured: GI50

Cc1ccc(C(C)(C)C[P+](C)(c2ccccc2)c2ccccc2)cc1
inactive: [1] 4.71 µM | [2] 3.24 µM | [3] 17.4 µM | [4] 18.1 µM | [5] 5.25 µM | [6] 20.4 µM | [7] 38.5 µM | [8] 4.46 µM | [9] 11.6 µM | [10] 9.18 µM | [11] 12 µM | [12] 27.2 µM | [13] 1.41 µM | [14] 23.9 µM | [15] 7.93 µM | [16] 4.18 µM | [17] 4.42 µM
